Experiments:
RAW 264.7 cells [1] = test: Cell survival by crystal violet staining, RAW 264.7 cells; assay type: cell-based; details: 50 μM, 24 h, DMSO-treated = 100%
Protocol: (§1) Treatment of primary macrophages and RAW 264.7 cells. Primary macrophages (1.5×10^5 cells/well) and RAW 264.7 (4×10^4 cells/well) cells were grown in 96-well plates (nitrite assay), or 6-well plates (2×10^6 cells/well) for measurement of iNOS and COX-2 expression. Following 3 h incubation, at 37 C, 5% CO2 (macrophages were allowed to attach) cells were stimulated with LPS (0.5 μg/ml) and IFN-γ (100 U/ml) in the absence or presence of various concentrations of ILK inhibitors (all treatments were replicated six times). Cells were incubated for an additional 24 h, and cell free culture supernatants from each well were collected for NO and cytokine determination. The remaining cells were stained with crystal violet to determine effect of the inhibitors on cell survival.
Effect of ILK Inhibitors on suppression of NO production and cell survival. Twenty-four hours following treatment with the ILK inhibitors, aliquots from the cell-free supernatants were assayed for NO and IL-6 release. Surviving cells were stained and fixed (crystal violet 0.05% in 20% ethanol), to determine if the decrease in NO production was related to a decrease in cell number due to toxicity of the compounds. […] Only those compounds that induced strong inhibition of NO release, and caused no significant cell death were selected for further evaluation.

RAW 264.7 cells [2] = test: LPS-IFN-γ-induced macrophage NO production (Griess nitrite assay), RAW 264.7 cells; assay type: cell-based, murine; details: 24 h; for NO release (%): 50 μM, relative to DMSO treated cells; for inhibition at 50 µM: Mus musculus, RAW264.7, 50 μM
Protocol: RAW 264.7 cells. RAW 264.7 cells, a murine macrophage cell line, were obtained from American Type Culture Collection (ATCC, Manassas, Va.) and cultured in DMEM supplemented with 10% FCS. Each treatment was performed in triplicate wells. RAW 264.7 cells (Balb/c background) produce a significant amount of nitric oxide upon treatment with IFN-γ alone, but require LPS for full activation. This property makes their behavior more like that of normal macrophages obtained from commonly used strains of mice.
as §1, with “Primary macrophages (1.5×10^5 cells/well) and RAW 264.7 (4×10^4 cells/well) cells were grown in 96-well plates (nitrite assay), or 6-well plates (2×10^6 cells/well) for measurement of iNOS and COX-2 expression.” left out
NO production. Following stimulation, the production of NO was determined by assaying culture supernatants for NO2^−, a stable reaction product of NO with molecular oxygen. Briefly, 100 μl of culture supernatant was reacted with an equal volume of Griess reagent at room temperature for 10 min. The absorbance at 550 nm was determined. All measurements were performed six times. The concentration of NO2^−was calculated by comparison with a standard curve prepared using NaNO2.
Effects of ILK inhibitors on LPS-IFN-γ-induced NO release. […] […] To compare the effect of the compounds across three different cell types, the NO release for each cell type was expressed relative to DMSO treated cells.

COX-2 = COX-2 protein expression in LPS-IFN-γ stimulated macrophages (western blot); assay type: cell-based, murine; details: LPS-IFN-γ stimulated macrophages, western blot
Protocol: (§2) Western blot analysis. After incubation with the indicated stimuli in the presence of ILK inhibitors, cells (duplicate samples, 2×10^6cell/6-wells plate) were washed in PBS and lysed on ice in 60 μl of lysis buffer. The protein content of each sample was determined using the Bradford protein assay kit (Bio-Rad, Richmond, Calif.). Absorbance was measured at 750 nm with a Beckman DU530 spectrophotometer (Palo Alto, Calif.). Proteins were mixed with 45×SDS sample buffer. Following separation of proteins by SDS-PAGE, using 8% bis-acrylamide in the separation gel, the proteins were transferred from the gels onto PVDF membranes using a MiniProtean III Cell (Bio-Rad), at 100 V for 1.5 h. Equal amounts of protein (5 μg) were loaded onto SDS-PAGE gels and examined by Western blot analysis with anti-Actin, anti-iNOS, anti-COX-2 murine monoclonal antibodies according to the manufacturers specifications (Transduction Laboratories). […] The Multi-Analyst/PC system from Biorad is being used to quantitate the bands of the expressed protein on the film. […] White light is chosen as the selected light source, thus the signal strength is measured in OD (optic density) units. […]
(§3) Effects of ILK inhibitors on the LPS-IFN-γ-induced iNOS and COX-2 expression NO production requires that iNOS be enzymatically activity, therefore experiments were performed to examine whether the inhibitory effect of ILK inhibitors was mediated by […] iNOS protein synthesis or effects on the activity of existing enzyme. Stimulated cells were treated with ILK inhibitors (25 μM), and lysed 16 h later and a western blot analysis was performed to quantitate iNOS protein expression. […]
Nitric oxide and Prostaglandin E2 are two pleiotropic mediators produced at inflammatory sites by the inducible enzymes iNOS and cyclooxygenase-2 (COX-2), respectively. […] Finally, we evaluated the in-vitro effects of compounds on production of MCP-1 chemokine by TNF-α stimulated HUVEC cells. […]

iNOS = iNOS protein expression in LPS-IFN-γ stimulated macrophages (western blot); assay type: cell-based, murine; details: LPS-IFN-γ stimulated macrophages, western blot
Protocol: as §2, with “Laboratories). Primary Abs, in 5% blocking buffer (5% NFM/TTBS), were incubated with blots 2 h or overnight at 4° C., followed by incubation with peroxidase-conjugated secondary antibody. Chemiluminescence substrates were used to reveal positive bands. The bands were exposed on x-ray films.” for “Laboratories).”
as §3

Row | SMILES | Survival (%) (RAW 264.7 cells [1]) | NO release (%) (RAW 264.7 cells [2]) | inhibition at 50 µM (RAW 264.7 cells [2]) | COX-2 protein expression (in words) (COX-2) | iNOS protein expression (in words) (iNOS)
1 | N=C(N)N/N=C/c1ccc(Cl)cc1Cl [KP-16735] | 51% | 20.4% | 73% | significant decrease of COX-2 protein expression | significantly inhibited the expression of iNOS protein
2 | Oc1ccc2c(c1)CC1NCCc3cc(O)c(O)c-2c31 (stereo not shown) [KP-21849, 5,6,6a,7-Tetrahydro-4H-dibenzo[de,g]quinoline-1,2,9-triol] | 51% | −0.1% | 100% | significant decrease of COX-2 protein expression | significantly inhibited the expression of iNOS protein

From patent US20050220779A1, “Integrin linked kinase modulation of macrophage activation” (priority 2001, published 2005)
